Test results taken from ChEMBL document CHEMBL3509421, “FDA drug approval package for diclofenac acid (NDA 22-202 CP, Ref ID: 3374276)”.

How the values were obtained:
[1] = Geometric mean for Cmax of diclofenac following single oral dosing of 50 mg Cataflam tablet in healthy human; assay type: ADME, organism-based; set-up: dietary status Fasting, dose 50 mg, dosed compound id 2.46815e+06, dosed compound name Diclofenac potassium, gender Mixed, regimen Single, route oral; settings: both, plasma
[2] = Mean Cmax value of diclofenac following single oral dosing of 50 mg Cataflam tablet in healthy human; assay type: ADME, organism-based; set-up: dietary status Fasting, dose 50 mg, dosed compound id 2.46815e+06, dosed compound name Diclofenac potassium, gender Mixed, regimen Single, route oral; settings: both, plasma
[3] = Geometric mean for apparent terminal elimination rate constant of diclofenac following single oral dosing of 50 mg Cataflam tablet in healthy human; assay type: ADME, organism-based, Plasma; set-up: dietary status Fasting, dose 50 mg, dosed compound id 2.46815e+06, dosed compound name Diclofenac potassium, gender Mixed, regimen Single, route oral; settings: in vivo
[4] = Mean Cmax value of diclofenac following single oral dosing of 18 mg Zorvolex capsule in healthy human; assay type: ADME, organism-based; set-up: dietary status Fasting, dose 18 mg, dosed compound id 2.46815e+06, dosed compound name Diclofenac, gender Mixed, regimen Single, route oral; settings: both, plasma
[5] = Mean apparent terminal elimination rate constant value of diclofenac following single oral dosing of 50 mg Cataflam tablet in healthy human; assay type: ADME, organism-based, Plasma; set-up: dietary status Fed, dose 50 mg, dosed compound id 2.46815e+06, dosed compound name Diclofenac potassium, gender Mixed, regimen Single, route oral; settings: in vivo
[6] = Mean maximum Tmax value of diclofenac potassium following oral dosing of PRO-513 50 mg sachet in healthy human; assay type: ADME, organism-based; set-up: dietary status Fed, dose 50 mg, dosed compound id 2.46815e+06, dosed compound name Diclofenac potassium, gender Mixed, regimen Single, route oral, study doses 50 mg; settings: both, plasma, read-out: Maximum Tmax
[7] = Mean Kel of diclofenac potassium following oral dosing of Cataflam 50 mf tablet in healthy human; assay type: ADME, organism-based; set-up: dietary status Fed, dose 50 mg, dosed compound id 2.46815e+06, dosed compound name Diclofenac potassium, gender Mixed, regimen Single, route oral, study doses 50 mg; settings: both, plasma, 50 mg
[8] = Mean AUC (0-infinity) of diclofenac following single oral dosing of 25 mg diclofenac potassium softgel capsule in healthy human; assay type: ADME, organism-based; set-up: time infinity, dietary status Fasting, dose 25 mg, dosed compound id 2.46815e+06, dosed compound name Diclofenac potassium, gender Mixed, regimen Single, route oral, study doses 25/50 mg; settings: both, plasma, read-out: AUC (0-infinity)
[9] = Geometric mean for AUC (0-t) of diclofenac following single oral dosing of 50 mg Cataflam tablet in healthy human; assay type: ADME, organism-based; set-up: dietary status Fed, dose 50 mg, dosed compound id 2.46815e+06, dosed compound name Diclofenac potassium, gender Mixed, regimen Single, route oral; settings: both, plasma
[10] = Mean AUC (0-t) value of diclofenac following single oral dosing of 18 mg Zorvolex capsule in healthy human; assay type: ADME, organism-based; set-up: dietary status Fasting, dose 18 mg, dosed compound id 2.46815e+06, dosed compound name Diclofenac, gender Mixed, regimen Single, route oral; settings: both, plasma
[11] = Mean AUC (0-t) of diclofenac following single oral dosing of 25 mg diclofenac potassium softgel capsule in healthy human; assay type: ADME, organism-based; set-up: dietary status Fasting, dose 25 mg, dosed compound id 2.46815e+06, dosed compound name Diclofenac potassium, gender Mixed, regimen Single, route oral, study doses 25/50 mg; settings: both, plasma
[12] = Mean Tmax of diclofenac following single oral dosing of 25 mg diclofenac potassium soft gelatin capsule in healthy human; assay type: ADME, organism-based; set-up: dietary status Fasting, dose 25 mg, dosed compound id 2.46815e+06, dosed compound name Diclofenac potassium, gender Mixed, regimen Single, route oral, study doses 25/50 mg; settings: both, plasma
[13] = Median tmax of diclofenac following single oral dosing of 35 mg Zorvolex capsule in healthy human; assay type: ADME, organism-based; set-up: dietary status Fasting, dose 35 mg, dosed compound id 2.46815e+06, dosed compound name Diclofenac, gender Mixed, regimen Single, route oral; settings: both, plasma, read-out: Median Tmax
[14] = Mean Tmax of diclofenac following single oral dosing of 50 mg diclofenac potassium softgel capsule in healthy human; assay type: ADME, organism-based; set-up: dietary status Fasting, dose 50 mg, dosed compound id 2.46815e+06, dosed compound name Diclofenac potassium, gender Mixed, regimen Single, route oral, study doses 25/50 mg; settings: both, plasma
[15] = Mean apparent terminal elimination rate constant value of diclofenac following single oral dosing of 35 mg Zorvolex capsule in healthy human; assay type: ADME, organism-based, Plasma; set-up: dietary status Fasting, dose 35 mg, dosed compound id 2.46815e+06, dosed compound name Diclofenac, gender Mixed, regimen Single, route oral; settings: in vivo
[16] = Geometric mean for Cmax of diclofenac following single oral dosing of 18 mg Zorvolex capsule in healthy human; assay type: ADME, organism-based; set-up: dietary status Fasting, dose 18 mg, dosed compound id 2.46815e+06, dosed compound name Diclofenac, gender Mixed, regimen Single, route oral; settings: both, plasma
[17] = Mean AUC (0-t) value of diclofenac following single oral dosing of 35 mg Zorvolex capsule in healthy human; assay type: ADME, organism-based; set-up: dietary status Fed, dose 35 mg, dosed compound id 2.46815e+06, dosed compound name Diclofenac, gender Mixed, regimen Single, route oral; settings: both, plasma
clinical [18] = settings: both, human, plasma, po, 50 mg
[19] = Mean minimum Tmax value of diclofenac potassium following oral dosing of Cataflam 50 mf tablet in healthy human; assay type: ADME, organism-based; set-up: dietary status Fasting, dose 50 mg, dosed compound id 2.46815e+06, dosed compound name Diclofenac potassium, gender Mixed, regimen Single, route oral, study doses 50 mg; settings: both, plasma, 50 mg, read-out: Minimum Tmax
[20] = Mean median Tmax value of diclofenac potassium following oral dosing of Cataflam 50 mf tablet in healthy human; assay type: ADME, organism-based; set-up: dietary status Fasting, dose 50 mg, dosed compound id 2.46815e+06, dosed compound name Diclofenac potassium, gender Mixed, regimen Single, route oral, study doses 50 mg; settings: both, plasma, 50 mg, read-out: Median Tmax
[21] = Mean Tmax of diclofenac following single oral dosing of 25 mg diclofenac potassium softgel capsule in healthy human; assay type: ADME, organism-based; set-up: dietary status Fasting, dose 25 mg, dosed compound id 2.46815e+06, dosed compound name Diclofenac potassium, gender Mixed, regimen Single, route oral, study doses 25/50 mg; settings: both, plasma
[22] = Geometric mean for AUC (0-t) of diclofenac following single oral dosing of 35 mg Zorvolex capsule in healthy human; assay type: ADME, organism-based; set-up: dietary status Fasting, dose 35 mg, dosed compound id 2.46815e+06, dosed compound name Diclofenac, gender Mixed, regimen Single, route oral; settings: both, plasma
[23] = Mean Cmax of diclofenac following single oral dosing of 50 mg diclofenac potassium softgel capsule in healthy human; assay type: ADME, organism-based; set-up: dietary status Fed, dose 50 mg, dosed compound id 2.46815e+06, dosed compound name Diclofenac potassium, gender Mixed, regimen Single, route oral, study doses 25/50 mg; settings: both, plasma
[24] = (§1) Mean AUC (0-t) of diclofenac following single oral dosing of 50 mg diclofenac potassium softgel capsule in healthy human; assay type: ADME, organism-based; set-up: dietary status Fed, dose 50 mg, dosed compound id 2.46815e+06, dosed compound name Diclofenac potassium, gender Mixed, regimen Single, route oral, study doses 25/50 mg; settings: both, plasma
[25] = Geometric mean for AUC (0-infinity) of diclofenac following single oral dosing of 35 mg Zorvolex capsule in healthy human; assay type: ADME, organism-based; set-up: time infinity, dietary status Fasting, dose 35 mg, dosed compound id 2.46815e+06, dosed compound name Diclofenac, gender Mixed, regimen Single, route oral; settings: both, plasma, read-out: AUC (0-infinity)
[26] = as §1; assay type: ADME, organism-based; set-up: dietary status Fasting, dose 50 mg, dosed compound id 2.46815e+06, dosed compound name Diclofenac potassium, gender Mixed, regimen Single, route oral, study doses 25/50 mg; settings: both, plasma
clinical [27] = settings: both, human, plasma, po, 35 mg
[28] = Mean AUC(0-infinity) of diclofenac potassium following oral dosing of PRO-513 50 mg sachet in healthy human; assay type: ADME, organism-based; set-up: time infinity, dietary status Fasting, dose 50 mg, dosed compound id 2.46815e+06, dosed compound name Diclofenac potassium, gender Mixed, regimen Single, route oral, study doses 50 mg; settings: both, plasma, read-out: AUC(0-infinity)
[29] = Minimum tmax of diclofenac following single oral dosing of 35 mg Zorvolex capsule in healthy human; assay type: ADME, organism-based, Plasma; set-up: dietary status Fasting, dose 35 mg, dosed compound id 2.46815e+06, dosed compound name Diclofenac, gender Mixed, regimen Single, route oral; settings: in vivo
[30] = Mean AUC (0-t) value of diclofenac following single oral dosing of 50 mg Cataflam tablet in healthy human; assay type: ADME, organism-based; set-up: dietary status Fed, dose 50 mg, dosed compound id 2.46815e+06, dosed compound name Diclofenac potassium, gender Mixed, regimen Single, route oral; settings: both, plasma
[31] = Mean Cmax value of diclofenac following single oral dosing of 35 mg Zorvolex capsule in healthy human; assay type: ADME, organism-based; set-up: dietary status Fed, dose 35 mg, dosed compound id 2.46815e+06, dosed compound name Diclofenac, gender Mixed, regimen Single, route oral; settings: both, plasma

Structure (SMILES): O=C(O)Cc1ccccc1Nc1c(Cl)cccc1Cl [DICLOFENAC]
- Cmax [1]: 1090 ng/mL
- Cmax [2]: 1190 ng/mL
- lambda-z [3]: 0.318 h⁻¹
- Cmax [4]: 496 ng/mL
- lambda-z [5]: 0.332 h⁻¹
- Tmax [6]: 240 min
- k el [7]: 0.000136 s⁻¹
- AUC(0-inf) [8]: 706 ng·h/mL
- AUC(0-t) [9]: 1150 ng·h/mL
- AUC(0-t) [10]: 490 ng·h/mL
- AUC(0-t) [11]: 691 ng·h/mL
- Tmax [12]: 27 min
- Tmax [13]: 60 min
- Tmax [14]: 30.6 min
- lambda-z [15]: 0.349 h⁻¹
- Cmax [16]: 454 ng/mL
- AUC(0-t) [17]: 861 ng·h/mL
- half-life (clinical [18]): 129 min
- Tmax [19]: 15 min
- Tmax [20]: 30 min
- Tmax [21]: 29.4 min
- AUC(0-t) [22]: 980 ng·h/mL
- Cmax [23]: 1150 ng/mL
- AUC(0-t) [24]: 1420 ng·h/mL
- AUC(0-inf) [25]: 979 ng·h/mL
- AUC(0-t) [26]: 1520 ng·h/mL
- half-life (clinical [27]): 126 min
- AUC(0-inf) [28]: 1250 ng·h/mL
- Minimum Tmax [29]: 28.2 min
- AUC(0-t) [30]: 1180 ng·h/mL
- Cmax [31]: 355 ng/mL
